Tests used:
human OATP1B1 = biological target: T1, human OATP1B1 (Homo sapiens, UniProt Q9Y6L6); assay: In vitro transporter inhibition; type: in vitro ADME
T1 sequence (Q9Y6L6 1-691): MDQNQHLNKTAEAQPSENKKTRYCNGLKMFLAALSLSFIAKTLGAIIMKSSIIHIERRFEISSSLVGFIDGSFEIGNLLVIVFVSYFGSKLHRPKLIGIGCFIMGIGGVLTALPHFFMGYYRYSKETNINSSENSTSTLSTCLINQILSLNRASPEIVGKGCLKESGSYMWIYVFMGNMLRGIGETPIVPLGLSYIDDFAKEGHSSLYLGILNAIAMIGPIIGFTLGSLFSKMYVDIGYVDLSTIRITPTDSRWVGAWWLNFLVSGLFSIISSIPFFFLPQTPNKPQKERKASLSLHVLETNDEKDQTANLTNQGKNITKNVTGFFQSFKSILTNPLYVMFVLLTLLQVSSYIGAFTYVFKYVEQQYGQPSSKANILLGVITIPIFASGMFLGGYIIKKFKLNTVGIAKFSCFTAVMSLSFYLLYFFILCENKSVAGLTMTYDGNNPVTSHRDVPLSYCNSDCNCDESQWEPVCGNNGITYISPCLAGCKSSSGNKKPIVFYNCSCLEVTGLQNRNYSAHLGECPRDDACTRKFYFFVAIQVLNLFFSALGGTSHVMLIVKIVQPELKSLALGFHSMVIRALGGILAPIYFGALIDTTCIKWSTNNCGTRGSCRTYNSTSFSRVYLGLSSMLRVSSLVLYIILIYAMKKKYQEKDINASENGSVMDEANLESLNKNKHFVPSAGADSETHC
Method: In vitro drug interaction studies were performed with human transporters. […] Potential interactions with inhibitors of the OAT1 transporter were considered clinically irrelevant.

CYP2C19 = CYP2C19 (Homo sapiens, UniProt P33261); assay: In vitro CYP inhibition; type: in vitro ADME
CYP2D6 = CYP2D6 (Homo sapiens, UniProt P10635); assay: In vitro CYP inhibition; type: in vitro ADME
clinical = conditions: human, in vivo; for CL renal / clearance / half-life / Vd: both sexes; for clearance: Cl
Method: The levels of CGA in plasma and urine were analysed using a fully validated method, which included LC-MS/MS analysis. The PK data were analysed based on a non-compartmental model. A model-based approach was implemented for the characterization of the PK properties of the IV formulation in order to estimate the level of PK exposure after different doses administered with different duration of infusion. The model outcomes provided rationales for supporting decision-making through the dose escalation process. The PK parameters were determined using SAS (version 9.3), and modelling of the PK data was performed using NONMEM (version 7.3, ICON Solutions). PART A: Mono-Centre, Randomized, Successive Groups, Double-Blind, Placebo-Controlled Study in Healthy Male and Female Subjects
Part C was a randomized, double-blind, placebo-controlled study. It was conducted in five successive cohorts of 8 healthy male or female subjects each, for a total of 40 subjects. For each of the five cohorts, 6 subjects were administered CGA and 2 subjects received placebo. The study medication was administered IV, first as a loading dose and then as a maintenance dose. The dosage regimen was determined based both on the results of Part A and PK modelling.
For the first three cohorts, three ascending doses of the study medication were administered IV as loading doses of 2.0, 3.0, and 3.6 mg/kg for 20 minutes, respectively, followed by maintenance doses of 2.5, 3.75 and 4.5 mg/kg/h given by IV infusion over a period of […]. For the fourth cohort, a dose of the IV formulation of CGA determined as being well tolerated was administered as a loading dose by IV infusion over 20 minutes, followed by a maintenance dose administered by IV infusion over a period of up to 12 hours. The 5th cohort received the study medication at the same dose and under the same conditions as the 4th cohort, except for the period during which the maintenance dose was administered, which lasted up to 24 hours.
Blood sample for PK measurements were collected at 18 timepoints for the first three cohorts, and 20 timepoints for the 4th and 5th cohorts. These included a sample preceding the administration of the study medication, and the period from 20 minutes to 48 hours following the initiation of the IV infusion. Urine was also collected for PK measurements at the following intervals relative to the time of initiation of the IV infusion: 0-6, 6-12, 12-24, 24-36, and 36-48 hours. […]

plasma NH3 [1] = assay: Rate of reduction of plasma NH3 over 36 hours, population with baseline NH3 over 100/150 micromol/L; type: in vivo, human
Description: The two populations analyzed included: 1) Population with baseline plasma NH3 levels over 100 micromol/L in non-neonate or 150 micromol/L in neonate; 2) Propensity Matching Score (PMS) Population. […] These rates of decrease were confirmed to be statistically significant.

[2] = PK study comparing oral to IV CARBAGLU in 36 healthy volunteers; type: in vivo, human
plasma NH3 [3] = assay: Retrospective review of PA, MMA, IVA decompensation episodes: plasma NH3 and clinical findings; type: in vivo, human
Method: […] […] Plasma ammonia (NH3) levels were measured up to a maximum of 15 days from the start of treatment. […] Concomitant standard of care therapies included carnitine, arginine, hydroxocobalamin, biotin, thiamine, riboflavin and glucose.

Chain of CYP2D6 (P10635 whole entry): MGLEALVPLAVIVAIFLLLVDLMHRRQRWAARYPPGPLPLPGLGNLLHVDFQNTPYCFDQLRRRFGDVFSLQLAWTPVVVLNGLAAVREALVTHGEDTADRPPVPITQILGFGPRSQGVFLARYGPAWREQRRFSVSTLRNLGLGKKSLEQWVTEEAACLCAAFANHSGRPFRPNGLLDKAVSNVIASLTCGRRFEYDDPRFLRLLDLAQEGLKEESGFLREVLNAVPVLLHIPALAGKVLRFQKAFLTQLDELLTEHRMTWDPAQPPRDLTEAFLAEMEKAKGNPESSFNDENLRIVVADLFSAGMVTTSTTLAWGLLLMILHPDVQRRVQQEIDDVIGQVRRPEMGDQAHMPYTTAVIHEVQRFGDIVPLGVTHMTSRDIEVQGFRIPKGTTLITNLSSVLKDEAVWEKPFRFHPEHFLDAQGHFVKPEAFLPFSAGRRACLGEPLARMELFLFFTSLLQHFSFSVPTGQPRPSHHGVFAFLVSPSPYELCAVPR
Chain of CYP2C19 (P33261 whole entry): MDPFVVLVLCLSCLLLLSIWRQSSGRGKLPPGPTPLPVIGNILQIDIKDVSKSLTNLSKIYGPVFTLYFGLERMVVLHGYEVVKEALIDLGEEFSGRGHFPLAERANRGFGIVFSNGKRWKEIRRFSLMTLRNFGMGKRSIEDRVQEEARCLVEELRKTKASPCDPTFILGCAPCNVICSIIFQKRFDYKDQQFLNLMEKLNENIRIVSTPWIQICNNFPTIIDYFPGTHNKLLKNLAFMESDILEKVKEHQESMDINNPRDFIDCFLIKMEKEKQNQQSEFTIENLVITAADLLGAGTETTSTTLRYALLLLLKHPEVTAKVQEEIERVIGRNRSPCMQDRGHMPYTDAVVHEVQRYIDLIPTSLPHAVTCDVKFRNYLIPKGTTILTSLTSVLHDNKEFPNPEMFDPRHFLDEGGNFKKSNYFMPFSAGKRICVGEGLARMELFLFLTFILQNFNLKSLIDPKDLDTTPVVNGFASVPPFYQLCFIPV

With NC(=O)N[C@@H](CCC(=O)O)C(=O)O [carglumic acid, N-carbamoyl-L-glutamic acid] the “Inhibition of human OATP1B1 uptake transporter” value (human OATP1B1) was “not an inhibitor”, the “Inhibition of CYP2C19” value (CYP2C19) was “not an inhibitor” and the “Inhibition of CYP2D6” value (CYP2D6) was “not an inhibitor”. The CL renal (clinical; iv, Average renal clearance) was 4.83 mL/min/kg, the clearance (clinical; iv, Mean) was 5.33 mL/min/kg and the clearance (clinical; iv, Median) was 5.27 mL/min/kg. For the same compound, the half-life (clinical; iv, Mean) was 28.4 h, the half-life (clinical; iv, Median) was 28.5 h and the CL renal (clinical; iv, Renal Clearance, Mean) was 4.83 mL/min/kg. For the same compound, the CL renal (clinical; iv, Renal Clearance, Median) was 4.98 mL/min/kg, the Vd (clinical; iv, Mean) was 13 L/kg and the Vd (clinical; iv, Median) was 12.8 L/kg. The “Ae (% of the dose excreted), Max” value (clinical; both, iv) was 111.412%, the “Ae (% of the dose excreted), Mean” value (clinical; both, iv) was 84.478% and the “Ae (% of the dose excreted), Median” value (clinical; both, iv) was 86.924%. The “Ae (% of the dose excreted), Min” value (clinical; both, iv) was 38.756%, the “Cl, Max” value (clinical; both, iv) was 7.3 mL/min/kg and the “Cl, Min” value (clinical; both, iv) was 3.2 mL/min/kg. The “Half-life, Max” value (clinical; both, iv) was 39.987 h, the “Half-life, Min” value (clinical; both, iv) was 13.598 h and the “Renal Clearance, Max” value (clinical; both, iv) was 8.5 mL/min/kg. The “Renal Clearance, Min” value (clinical; both, iv) was 1.93 mL/min/kg, the “Vd, Max” value (clinical; both, iv) was 19.689 L/kg and the “Vd, Min” value (clinical; both, iv) was 3.897 L/kg. For the same compound, the “Dose dependence of AUCinf, AUClast and Cmax” value (clinical) was “increased linearly”, the “Median time to achieve 50% reduction of plasma NH3” value (plasma NH3 [1]; baseline plasma NH3 over 100 micromol/L in non-neonate or 150 micromol/L in neonate) was 18 hours post dose and the “Speed of plasma NH3 reduction versus NH3 Scav alone group” value (plasma NH3 [1]; first 36 hours after treatment initiation, the two populations analyzed) was “statistically significantly faster”. For the same compound, the “Mean fraction of the dose excreted in the urine” value ([2]; after IV administration) was 90%, the “Mean fraction of the dose excreted in the urine” value ([2]; after oral administration) was 7.5% and the bioavailability ([2]; human, in vivo, oral vs IV, 36 healthy volunteers, read-out: Mean absolute bioavailability) was 9.87%. The “Mean reduction in plasma NH3 levels from baseline” value (plasma NH3 [3]; 36-48 hours from treatment initiation) was −63%, the “Differences in plasma ammonia level reduction between pediatric and adult patients with PA or MMA” value (plasma NH3 [3]; 51 patients (27 PA, 24 MMA)) was “no apparent differences” and the “Median change in the number of clinical findings from baseline to endpoint” value (plasma NH3 [3]; clinical, laboratory, neurological, psychiatric, respiratory findings and feeding difficulties) was −4.0. For the same compound, the “Normalization of the neurological findings” value (plasma NH3 [3]; human, in vivo) was 50 % of episodes.

Reference: patent US20220040129A1, “TREATMENT OF HYPERAMMONEMIA IN PATIENTS WITH RENAL INSUFFICIENCY” (RECORDATI S.p.A., priority 2019, published 2022)
